In BindingDB's records for doi:10.1021/acs.jmedchem.5b00109 (Peking Union Medical College, 2015):

Assay: Inhibition of HIV-1 HXB2 gp41 N-terminal heptad repeat-mediated fusion between infected HL2/3 cells to target TZM-bl cells after 6 hrs by luciferase reporter gene assay

| Substance | IC50 |
| --- | --- |
| H-MTWEEWDKKIEEYTKKIEELI-OH | 2.2 nM |
| H-TTWEAWDRAIAEYAARIEALIR-OH | > 2250 nM |
| H-MTWEAWDRAIAEYAARIEALIRAAQEQQEKNEAALREL-OH | 0.86 nM |
| H-MTWEEWDKKIEEYTKKIEELIKKS-OH | 2.3 nM |
| H-MTWEAWDRAIAEYAARIEALIR-OH | 59 nM |
| H-TTWEEWDKKIEEYTKKIEELIKKS-OH | 18 nM |
| H-WEAWDRAIAEYAARIEALIRAAQEQQEKNEAALREL-OH | 0.34 nM |
